{
  "source": "patent US20230027066A1",
  "about": "(Urovant Sciences GmbH, priority 2019, published 2023)",
  "assay": "ABPM study, in-clinic vital signs",
  "type": "in vivo, human",
  "conditions": "SAF; for In-clinic vital signs change from baseline ≥5, subjects / In-clinic vital signs change from baseline ≥10, subjects / In-clinic vital signs change from baseline ≥15, subjects: parameter not given (Table 111)",
  "method": "Safety was evaluated by assessment of clinical laboratory tests, physical examinations, and vital signs measurements from office visits at various time points during the study, and by the documentation of AEs.\nTables 106, 107, and 108 show the changes to in-clinic measurements of systolic blood pressure, diastolic blood pressure, and heart rate over the treatment period.\nFor subjects with a body weight of at least about 65.4 kg, there was no difference between treatment and placebo in the number of subjects with a ≥5, ≥10, or ≥15 mm Hg increase in systolic blood pressure. The same was true for subjects over the age of 66.",
  "key": {"[1]": {"conditions": "Baseline to Day 28, subgroup Pre-existing hypertension: YES"}, "[2]": {"conditions": "Baseline to Day 28, subgroup eGFR <= 25th Percentile (72 mL/min/1.73 m^2)"}, "[3]": {"conditions": "Baseline to Day 28, subgroup eGFR > 25th Percentile (72 mL/min/1.73 m^2)"}, "[4]": {"conditions": "Baseline to End of Treatment, subgroup <= 25th percentile BW (65.4 kg)"}, "[5]": {"conditions": "Baseline to End of Treatment, subgroup >25th percentile BW (65.4 kg)"}, "[6]": {"conditions": "Baseline to End of Treatment, subgroup Age <= 75th percentile (66 years)"}, "[7]": {"conditions": "Baseline to End of Treatment, subgroup Age > 75th percentile (66 years)"}, "[8]": {"conditions": "Baseline to End of Treatment, subgroup Pre-existing hypertension: NO"}, "[9]": {"conditions": "Baseline to End of Treatment, subgroup Pre-existing hypertension: YES"}, "[10]": {"conditions": "Baseline to End of Treatment, subgroup eGFR <= 25th percentile (72 mL/min/1.73 m^2)"}, "[11]": {"conditions": "Baseline to End of Treatment, subgroup eGFR > 25th percentile (72 mL/min/1.73 m^2)"}, "[12]": {"conditions": "Over 28 Days on 3 Consecutive Visits"}, "[13]": {"conditions": "Over 28 Days on 3 Consecutive Visits, subgroup Body Weight <= 25th Percentile (65.4 kg)"}, "[14]": {"conditions": "Over 28 Days on 3 Consecutive Visits, subgroup Body Weight > 25th Percentile (65.4 kg)"}, "[15]": {"conditions": "Over 28 Days on 3 Consecutive Visits, subgroup eGFR <= 25th Percentile (72 mL/min/1.73 m^2)"}, "[16]": {"conditions": "Over 28 Days on 3 Consecutive Visits, subgroup eGFR > 25th Percentile (72 mL/min/1.73 m^2)"}},
  "data": [
    {"compound": "O=C(Nc1ccc(C[C@@H]2CC[C@H]([C@H](O)c3ccccc3)N2)cc1)[C@@H]1CCc2nccc(=O)n21", "note": "[Vibegron, (6S)-N-[4-[[(2S,5R)−5-[(R)-hydroxy(phenyl)methyl]pyrrolidin−2-yl]methyl]phenyl]−4-oxo−7,8-dihydro−6H-pyrrolo[1,2-a]pyrimidine−6-carboxamide]", "values": [
      {"measurement": "In-clinic SBP change from baseline ≥5, subjects", "setting": "[1]", "value": "13 (33.3) n (%)"},
      {"measurement": "In-clinic SBP change from baseline ≥10, subjects", "setting": "[1]", "value": "9 (23.1) n (%)"},
      {"measurement": "In-clinic SBP change from baseline ≥15, subjects", "setting": "[1]", "value": "4 (10.3) n (%)"},
      {"measurement": "In-clinic SBP change from baseline ≥5, subjects", "setting": "[2]", "value": "7 (23.3) n (%)"},
      {"measurement": "In-clinic SBP change from baseline ≥10, subjects", "setting": "[2]", "value": "4 (13.3) n (%)"},
      {"measurement": "In-clinic SBP change from baseline ≥15, subjects", "setting": "[2]", "value": "1 (3.3) n (%)"},
      {"measurement": "In-clinic SBP change from baseline ≥5, subjects", "setting": "[3]", "value": "26 (35.6) n (%)"},
      {"measurement": "In-clinic SBP change from baseline ≥10, subjects", "setting": "[3]", "value": "18 (24.7) n (%)"},
      {"measurement": "In-clinic SBP change from baseline ≥15, subjects", "setting": "[3]", "value": "9 (12.3) n (%)"},
      {"measurement": "In-clinic DBP (mmHg) change from baseline ≥5, subjects", "setting": "Baseline to End of Treatment", "value": "31 (29.5) n (%)"},
      {"measurement": "In-clinic DBP (mmHg) change from baseline ≥10, subjects", "setting": "Baseline to End of Treatment", "value": "12 (11.4) n (%)"},
      {"measurement": "In-clinic DBP (mmHg) change from baseline ≥15, subjects", "setting": "Baseline to End of Treatment", "value": "7 (6.7) n (%)"},
      {"measurement": "In-clinic HR (bpm) change from baseline ≥5, subjects", "setting": "Baseline to End of Treatment", "value": "37 (35.2) n (%)"},
      {"measurement": "In-clinic HR (bpm) change from baseline ≥10, subjects", "setting": "Baseline to End of Treatment", "value": "12 (11.4) n (%)"},
      {"measurement": "In-clinic HR (bpm) change from baseline ≥15, subjects", "setting": "Baseline to End of Treatment", "value": "4 (3.8) n (%)"},
      {"measurement": "In-clinic SBP (mmHg) change from baseline ≥5, subjects", "setting": "Baseline to End of Treatment", "value": "36 (34.3) n (%)"},
      {"measurement": "In-clinic SBP (mmHg) change from baseline ≥10, subjects", "setting": "Baseline to End of Treatment", "value": "22 (21.0) n (%)"},
      {"measurement": "In-clinic SBP (mmHg) change from baseline ≥15, subjects", "setting": "Baseline to End of Treatment", "value": "13 (12.4) n (%)"},
      {"measurement": "In-clinic SBP change from baseline ≥5, subjects", "setting": "[4]", "value": "13 (43.3) n (%)"},
      {"measurement": "In-clinic SBP change from baseline ≥10, subjects", "setting": "[4]", "value": "9 (30.0) n (%)"},
      {"measurement": "In-clinic SBP change from baseline ≥15, subjects", "setting": "[4]", "value": "5 (16.7) n (%)"},
      {"measurement": "In-clinic SBP change from baseline ≥5, subjects", "setting": "[5]", "value": "23 (30.7) n (%)"},
      {"measurement": "In-clinic SBP change from baseline ≥10, subjects", "setting": "[5]", "value": "13 (17.3) n (%)"},
      {"measurement": "In-clinic SBP change from baseline ≥15, subjects", "setting": "[5]", "value": "8 (10.7) n (%)"},
      {"measurement": "In-clinic SBP change from baseline ≥5, subjects", "setting": "[6]", "value": "29 (34.9) n (%)"},
      {"measurement": "In-clinic SBP change from baseline ≥10, subjects", "setting": "[6]", "value": "18 (21.7) n (%)"},
      {"measurement": "In-clinic SBP change from baseline ≥15, subjects", "setting": "[6]", "value": "10 (12.0) n (%)"},
      {"measurement": "In-clinic SBP change from baseline ≥5, subjects", "setting": "[7]", "value": "7 (31.8) n (%)"},
      {"measurement": "In-clinic SBP change from baseline ≥10, subjects", "setting": "[7]", "value": "4 (18.2) n (%)"},
      {"measurement": "In-clinic SBP change from baseline ≥15, subjects", "setting": "[7]", "value": "3 (13.6) n (%)"},
      {"measurement": "In-clinic SBP change from baseline ≥5, subjects", "setting": "[8]", "value": "22 (33.3) n (%)"},
      {"measurement": "In-clinic SBP change from baseline ≥10, subjects", "setting": "[8]", "value": "14 (21.2) n (%)"},
      {"measurement": "In-clinic SBP change from baseline ≥15, subjects", "setting": "[8]", "value": "9 (13.6) n (%)"},
      {"measurement": "In-clinic SBP change from baseline ≥5, subjects", "setting": "[9]", "value": "14 (35.9) n (%)"},
      {"measurement": "In-clinic SBP change from baseline ≥10, subjects", "setting": "[9]", "value": "8 (20.5) n (%)"},
      {"measurement": "In-clinic SBP change from baseline ≥15, subjects", "setting": "[9]", "value": "4 (10.3) n (%)"},
      {"measurement": "In-clinic SBP change from baseline ≥5, subjects", "setting": "[10]", "value": "13 (43.3) n (%)"},
      {"measurement": "In-clinic SBP change from baseline ≥10, subjects", "setting": "[10]", "value": "9 (30.0) n (%)"},
      {"measurement": "In-clinic SBP change from baseline ≥15, subjects", "setting": "[10]", "value": "6 (20.0) n (%)"},
      {"measurement": "In-clinic SBP change from baseline ≥5, subjects", "setting": "[11]", "value": "23 (30.7) n (%)"},
      {"measurement": "In-clinic SBP change from baseline ≥10, subjects", "setting": "[11]", "value": "13 (17.3) n (%)"},
      {"measurement": "In-clinic SBP change from baseline ≥15, subjects", "setting": "[11]", "value": "7 (9.3) n (%)"},
      {"measurement": "In-clinic DBP (mmHg) change from baseline ≥5, subjects", "setting": "[12]", "value": "5 (5.1) n (%)"},
      {"measurement": "In-clinic DBP (mmHg) change from baseline ≥10, subjects", "setting": "[12]", "value": "3 (3.1) n (%)"},
      {"measurement": "In-clinic DBP (mmHg) change from baseline ≥15, subjects", "setting": "[12]", "value": "0 n (%)"},
      {"measurement": "In-clinic HR (bpm) change from baseline ≥5, subjects", "setting": "[12]", "value": "6 (6.1) n (%)"},
      {"measurement": "In-clinic HR (bpm) change from baseline ≥10, subjects", "setting": "[12]", "value": "3 (3.1) n (%)"},
      {"measurement": "In-clinic HR (bpm) change from baseline ≥15, subjects", "setting": "[12]", "value": "0 n (%)"},
      {"measurement": "In-clinic SBP (mmHg) change from baseline ≥5, subjects", "setting": "[12]", "value": "14 (14.3) n (%)"},
      {"measurement": "In-clinic SBP (mmHg) change from baseline ≥10, subjects", "setting": "[12]", "value": "6 (6.1) n (%)"},
      {"measurement": "In-clinic SBP (mmHg) change from baseline ≥15, subjects", "setting": "[12]", "value": "0 n (%)"},
      {"measurement": "In-clinic vital signs change from baseline ≥5, subjects", "setting": "[13]", "value": "6 (23.1) n (%)"},
      {"measurement": "In-clinic vital signs change from baseline ≥10, subjects", "setting": "[13]", "value": "2 (7.7) n (%)"},
      {"measurement": "In-clinic vital signs change from baseline ≥15, subjects", "setting": "[13]", "value": "0 n (%)"},
      {"measurement": "In-clinic vital signs change from baseline ≥5, subjects", "setting": "[14]", "value": "8 (11.1) n (%)"},
      {"measurement": "In-clinic vital signs change from baseline ≥10, subjects", "setting": "[14]", "value": "4 (5.6) n (%)"},
      {"measurement": "In-clinic vital signs change from baseline ≥15, subjects", "setting": "[14]", "value": "0 n (%)"},
      {"measurement": "In-clinic vital signs change from baseline ≥5, subjects", "setting": "[15]", "value": "3 (10.7) n (%)"},
      {"measurement": "In-clinic vital signs change from baseline ≥10, subjects", "setting": "[15]", "value": "1 (3.6) n (%)"},
      {"measurement": "In-clinic vital signs change from baseline ≥15, subjects", "setting": "[15]", "value": "0 n (%)"},
      {"measurement": "In-clinic vital signs change from baseline ≥5, subjects", "setting": "[16]", "value": "11 (15.7) n (%)"},
      {"measurement": "In-clinic vital signs change from baseline ≥10, subjects", "setting": "[16]", "value": "5 (7.1) n (%)"},
      {"measurement": "In-clinic vital signs change from baseline ≥15, subjects", "setting": "[16]", "value": "0 n (%)"}
    ]}
  ]
}
